Results as given in patent publication US20250170114A1, “METHODS OF TREATMENT USING T-TYPE CALCIUM CHANNEL MODULATORS” (Praxis Precision Medicines, Inc., priority 2022, published 2025).
“Also recorded” adds a separate entry of the source.

What was measured:
[1] = tested on: harmaline-induced motor impairment in male SD rats; test: Wire grip test with harmaline in SD rats; assay type: in vivo, rat; details: harmaline 30 mg/kg, 10 mg/kg, reference compound
Text: (§1) Each of six groups of male SD rats were subjected to a tremor assessment, followed by three ADL-like measures including open field test, rotarod test, and wire grip test after receiving doses of either vehicle, Formula (I), or propranolol, followed by either saline or harmaline, as outlined below in Table 22 below.
Fifteen minutes after the rotarod test, rats were subjected to a wire grip test using an 80 cm long and 7 mm in diameter wire placed at a height of 50 cm.

[2] = tested on: harmaline-induced tremor in male SD rats; test: Tremor assessment (tremor score 0-4) with harmaline in SD rats; assay type: in vivo, rat; details: harmaline 30 mg/kg, 10 mg/kg
Text: as §1, with “below. Twenty minutes after administration of harmaline or saline, the rats were subjected to a tremor assessment using the score criteria outlined in the table below.” for “below.”

[3] = tested on: harmaline-induced decrease in travelling distance in male SD rats; test: Open field test with harmaline in SD rats; assay type: in vivo, rat; details: harmaline 30 mg/kg, 10 mg/kg
Description: as §1
Fifteen minutes after the tremor assessment, the rats were subjected to an open field test. FIG. 8 is a bar graph showing the traveling distance in 0-5 minutes (mm) measured in rats that were administered 30 mg/kg harmaline and also administered 10 mg/kg propranolol or 1 mg/kg, 3 mg/kg or 10 mg/kg study drug.

[4] = tested on: rat spontaneous locomotor activity (sLMA); test: Rat spontaneous locomotor activity (sLMA) assay; assay type: in vivo; details: rats, 0-30 min; compound of Formula (I) 1 mg/kg p.o., propranolol 1 or 3 mg/kg i.p., alone or in combination
Description: […] Rat sLMA was measured from 0-30 min (0 minutes is 60 minutes after administration of the compound of Formula (I) and 20 minutes after administration of propranolol).

[5] = tested on: harmaline-induced motor impairment in male SD rats; test: Rotarod test with harmaline in SD rats; assay type: in vivo, rat; details: harmaline 30 mg/kg, 10 mg/kg
Description: as §1
Fifteen minutes after the open field test, the rats were subjected to a rotarod test. The speed of the rotarod increased from 10 rpms to 60 rpms within the first five minutes of the test. FIG. 9 is a bar graph showing the mean of latency to fall in the rotarod test measured in rats that were administered 30 mg/kg harmaline and also administered 10 mg/kg propranolol or 1 mg/kg, 3 mg/kg or 10 mg/kg study drug.

[6] = Plasma and brain tissue concentrations in rats after harmaline testing; assay type: in vivo, rat; details: collected immediately after harmaline testing
Description: Plasma and brain tissue sample collection (at 90 min post dosing of study compound) was evaluated in […]. N=15 in each group. Plasma and brain tissue samples were collected immediately after harmaline testing. Plasma sample number: 5×15=75. Brain tissue sample number: 5×15=75.

total sLMA (total distance travelled) [4]: do not significantly reduce
Structure (SMILES): CC(C)NCC(O)COc1cccc2ccccc12 (stereo not drawn) [propranolol, reference compound]
latency to fall in wire grip test [1]: significant reduction in motor impairment; also recorded: significantly attenuated | average tremor score vs vehicle and harmaline only [2]: significantly lower; also recorded: significantly inhibited | harmaline-induced decrease in spontaneous locomotor activity in the open field [3]: no effect | latency to fall in rotarod test vs vehicle and harmaline only [5]: failed to display any significant improvement; also recorded: no effect | plasma and brain concentrations [6]: consistent with those measured in previous studies
